Results on two compounds are retold here after patent US9446066B2, “Methods for reducing pulmonary uptake of intravenously injected cells” (priority 2010, dated 2016).

“And” between values parts separate entries of the source, which are not always exact repeats. Identical values can stand only once.

One data set concerns Porcine T-lymphoblasts. The data set can be described thus: T-lymphoblast labeling and in vitro retention of [18F]FDG. To be noted: mono-exponential fit, R^2=0.99; 6 time points over 120 minutes. It counts as cell-based. As to the method: (§1) [^18F]FDG (t1/2=109.8 min) was prepared according to standard procedures (TRACERIab FxFDG, GE Medical Systems, USA). Cells were incubated with [^18F]FDG in 7-10 mL PBS for 60 minutes at 37° C. before being washed to remove excess radioactivity.
The retention (the rate of tracer washout through GLUTs after dephosphorylation of [^18F]FDG-6P) was measured in triplicates at 6 different time points over 120 minutes and the retention half-life was estimated by fitting the data to a mono-exponential curve.

For a further data set, the system named is T-lymphoblasts. The data set can be described thus: PET-examination of lung uptake and distribution of transfused [18F]FDG-labeled T-lymphoblasts. It counts as in vivo, pig. The note with it: for pulmonary uptake of T-lymphoblasts compared to intravenous administration alone (in words): pre-incubation and intravenous co-administration with dextran sulfate. As to the method: In this study we present a method to monitor transfusion of T-lymphoblasts in vivo in a porcine model by PET-imaging. Porcine T-lymphoblasts were labeled with [^18F]FDG prior to administration, and the kinetics and bio-distribution of the cells was monitored for up to 2 hours. [^18F]FDG is a functional analogue to glucose, but cannot be metabolized further than the initial phosphorylation by hexokinase and is trapped in the cell cytoplasm. The same concept has been applied by our group to image transplantation of islets of Langerhans in a porcine model and in the clinical setting.
In the present work, three modes of administration were compared; intravenous administration with or without co-administration of the complement and coagulatory inhibitor low molecular weight dextran sulphate (LMW-DS), and intraarterial administration.
Spleens from three months old pigs were surgically resected and stored in PBS for immediate preparation. Spleens were cut into smaller fragments and mashed first against a 1 mm steel mesh and a second time with a syringe rubber plunger against a fine nylon mesh. The tissue was resuspended in PBS and the T-lymphoblasts were isolated using Ficoll-Paque (GE-Healthcare Uppsala, Sweden) density gradient centrifugation. All T-lymphoblasts were activated with PHA (1 μg/mL) (Invitrogen, Carlsbad, Calif., USA) to simulate the clinical setting of adoptively transferred tumor infiltrating lymphocytes.
T-lymphoblasts were suspended in 10-15 mL of PBS and administered over 10 minutes either intravenously into the internal jugular vein (n=5) or intraarterially into the ascending aorta (n=1). Two of the pigs given intravenous administration were pretreated with LMW-DS (4.5 mg/kg) (Apoteket AB, Umeå, Sweden). The T-lymphoblasts were in these two cases co-administered intravenously together with LMW-DS (9 mg/kg, followed by continuous infusion of 7.2 mg/kg/h).
as §1
Six pigs were examined by PET after administration of [^18F]FDG-labeled T-lymphoblasts. A GE Discovery ST PET/CT scanner (n=3) or a Hamamatsu SHR-7700 scanner (n=3) was used. Dynamic sequences were acquired over the lungs and liver for up to 120 minutes. The kinetic data obtained was expressed as absolute number of cells or the percentage of administered cells. Results are given as averages±SEM.
The concentration and total amount of cells trapped in lung tissue could be quantified. Table 1 presents the amount of T-lymphoblasts in the lungs at 30 minutes. Between 80 and up to 635 million cells (16 to 79% of the grafts) was trapped in lung tissue after administration. To quantify the amount of cells trapped in hotspots we defined two levels of density: hotspots with a cellular density over either 250.000 cells/cc (moderate density) or over 500.000 cells/cc (high density).

For data set [1] the following is noted: human patients, following an administration of dextran sulfate; cited from earlier work.
The mark [2] stands for this setting: range over the two LMW-DS pigs, lungs at 30 minutes.

As to `OC[C@H]1OC(O)[C@H]([18F])[C@@H](O)[C@@H]1O` (stereo partly drawn) [[^18F]FDG, ^18F-2-fluoro-2-deoxy-D-glucose], in the data set on Porcine T-lymphoblasts, the “[18F]FDG retention half-life” value stood at 5.32 h.

“low molecular weight dextran sulfate [LMW-DS]”: in the data set on T-lymphoblasts (at 30 minutes, single pig), the “% of cells in lungs” value is 16.3% and 31.8%. The “lung uptake (% of the administered T-lymphoblasts), average” value in the data set with T-lymphoblasts (at completed transfusion, intravenous co-administration of LMW-DS, pretreated pigs, n=2) was 36.6%. In addition, the “pulmonary uptake of T-lymphoblasts compared to intravenous administration alone (in words)” value in the data set with T-lymphoblasts is given as “lower”. Also, the “pulmonary uptake of T-lymphoblasts compared to intravenous administration alone (in words)” value with T-lymphoblasts (listed as dextran sulfate) is “decreased”. Besides, in the data set with T-lymphoblasts (setting [2]), the “amount of cells in high density hotspots” value is 0-111 million cells and the “cells in high density hotspots as % of lung uptake” value is given as 0-39%. Further, the APTT safely achieved result in data set [1] is on record as “about 250 s”.
